Where a SMILES comes first, the peptide text is derived from it. Where no end group is shown, it is not given here.
Tests used:
Human MARK4 = biological target: T1, Human MARK4 (Homo sapiens, UniProt Q96L34); test: In vitro kinase assay of MARK4 phosphorylating tau (Western blot); assay type: biochemical; details: human MARK4 and tau affinity-purified from HEK293 cells, FIG. 7
T1 construct: made in house; host or cells: HEK293 cells
T1 sequence (Q96L34 1-752): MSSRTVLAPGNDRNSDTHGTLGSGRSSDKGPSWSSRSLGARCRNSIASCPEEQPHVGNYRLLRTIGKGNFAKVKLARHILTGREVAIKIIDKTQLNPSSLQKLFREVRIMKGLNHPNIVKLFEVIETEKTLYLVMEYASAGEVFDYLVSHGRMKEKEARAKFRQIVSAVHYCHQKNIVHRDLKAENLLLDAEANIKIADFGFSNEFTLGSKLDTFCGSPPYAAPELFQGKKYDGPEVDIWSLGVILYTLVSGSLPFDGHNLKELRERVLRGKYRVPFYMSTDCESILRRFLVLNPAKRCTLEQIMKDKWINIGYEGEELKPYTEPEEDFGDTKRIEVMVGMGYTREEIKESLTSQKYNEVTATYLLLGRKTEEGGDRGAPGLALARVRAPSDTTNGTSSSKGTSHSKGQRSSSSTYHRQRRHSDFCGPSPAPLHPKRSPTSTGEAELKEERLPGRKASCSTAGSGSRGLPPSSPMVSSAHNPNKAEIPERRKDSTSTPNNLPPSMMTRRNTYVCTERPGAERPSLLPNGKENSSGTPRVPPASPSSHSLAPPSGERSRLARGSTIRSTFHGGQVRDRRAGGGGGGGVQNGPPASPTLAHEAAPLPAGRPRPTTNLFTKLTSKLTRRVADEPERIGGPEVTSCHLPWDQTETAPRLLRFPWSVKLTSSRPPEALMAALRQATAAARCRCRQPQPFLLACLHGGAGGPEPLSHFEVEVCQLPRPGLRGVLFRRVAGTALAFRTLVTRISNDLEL
Description: Both human MARK4 and tau proteins were expressed in HEK293 cells and affinity-purified by immunoprecipitation. After in vitro kinase reaction in the presence or absence of the peptides, the reaction mixtures were separated on SDS-PAGE to separate the proteins, and the levels of total tau and phospho-tau generated by MARK4 were detected by Western blot analysis. The TAT peptide was used as a negative control. Note the inhibition of MARK4-mediated tau phosphorylation by both TAT-MKI and MKI-TAT.
We next tested the ability of the TAT-MKI and MKI-TAT fusions to inhibit the activity of MARK4 kinase in phosphorylating the tau protein (FIG. 7). Human MARK4 and tau proteins were expressed in HEK293 cells and affinity-purified by immunoprecipitation. In vitro kinase reactions were performed in the presence or absence of the TAT-MKI and MKI-TAT fusion peptides and the levels of total tau and phospho-tau generated by MARK4 were detected by Western blot analysis. The TAT peptide was used as a negative control. Both the TAT-MKI and MKI-TAT fusion peptides inhibited MARK4-mediated tau phosphorylation in vitro.

Aβ-induced spine loss = details: Zempel et al. (2010); cited from earlier work
[1] = test system: PAR-1/MARK-mediated tau phosphorylation; test: Tau phosphorylation in transfected rat hippocampal neurons (western blot / immunostaining with 12E8 and PHF-1 antibodies); assay type: cell-based
Experimental: (§1) Robust 12E8 staining (gray) is seen in EGFP-transfected control neurons. Total tau is stained with anti-HA (gray). […] EGFP-transfected neurons served as control. […] Data quantification is shown in (3E) (***P<0.001 in Student's t-test). Scale bar, 10 μm.
(§2) Rat E18 hippocampal neuron primary cultures were prepared as described (Yu et al. (2011) Hum. Mol. Genet. 20:3227-3240, herein incorporated by reference in its entirety). Cultured neurons, grown for 10-days in vitro in 12-well plates, were transfected with 2-3 μg of plasmid per well using a CalPhos Mammalian Transfection Kit (Clontech, San Jose, Calif., USA). Fluorescence immunocytochemistry was performed 3 days after transfection. Preparation and concentration of lentiviral particles were performed as described before (Yu et al., supra). Viral transfection of hippocampal neurons was carried out at 10 days after in vitro culture. The next day, the culture medium was replaced with 50% fresh medium and 50% conditioned medium.
EGFP-tagged PSD-95-WT in the FHUGW lentivirus vector was described before (Xu et al. (2008) Neuron 57:248-262). The S561A mutation was introduced by site-directed mutagenesis. Tau S2A mutations were introduced as described before (Nishimura et al. Cell, 116:671-682), and subcloned into FHUGW with a C-terminal HA tag. EGFP- and HA-tagged human MARK4 constructs were obtained from Dr. Gerard Drewes. MKI cDNA was obtained from Dr. C. […]
(§3) Chicken anti-EGFP (1:4000) and rabbit anti-HA (1:3000) antibodies were purchased from Abcam (Cambridge, Mass., USA); mouse anti-Myc (1:1500, 4A6) and mouse anti-PSD-95 (1:300) from Millipore (Billerica, Mass., USA); rabbit anti-GluR1 (1:200) from Calbiochem (San Diego, Calif., USA) and rabbit anti-Synapsin I (1:1000) from Sigma (St Louis, Mo., USA). […] Dendritic spine number and clusters of PSD-95, GluR1 or Synapsin I were manually counted as the number along a 10 μm length of dendrite and presented as mean±SEM. […] Between 15 and 30 dendritic processes were selected for quantification. Data were analyzed while blind to the conditions.

[2] = test system: AMP-activated kinase (AMPK); test: AMPK kinase activity in neurons detected with phospho-acetyl-CoA carboxylase (Ser79) antibody; assay type: cell-based, rat; details: specificity control; pACC antibody, FIG. 3C
rat hippocampal neurons [3] = test: MARK4 overexpression-induced synaptic and spine toxicity in hippocampal neurons; assay type: cell-based
Experimental: as §1, §2
Chicken anti-EGFP (1:4000) and rabbit anti-HA (1:3000) antibodies were purchased from Abcam (Cambridge, Mass., USA); mouse anti-Myc (1:1500, 4A6) and mouse anti-PSD-95 (1:300) from Millipore (Billerica, Mass., USA); rabbit anti-GluR1 (1:200) from Calbiochem (San Diego, Calif., USA) and rabbit anti-Synapsin I (1:1000) from Sigma (St Louis, Mo., USA). Immunofluorescence analysis was done essentially as described before (Yu et al., supra). Confocal images were obtained using a Leica TCS SP5 confocal microscope or Zeiss inverted LSM510 confocal microscope (Carl Zeiss, Inc.) with 63× NA 1.4 objectives. Processed confocal images were used to make 2D projections. Dendritic spine number and clusters of PSD-95, GluR1 or Synapsin I were manually counted as the number along a 10 μm length of dendrite and presented as mean±SEM. Each experiment was done at least three times and six to nine neurons were randomly selected for analysis each time. Between 15 and 30 dendritic processes were selected for quantification. Data were analyzed while blind to the conditions.

rat hippocampal neurons [4] = test: Aβ oligomer-induced synaptic and dendritic spine defects in hippocampal neurons (morphology); assay type: cell-based; details: 5 μM Aβ oligomer-treated neurons
Experimental: FIGS. 4A-4C show the effects of MKI-EGFP on Aβ-induced loss of PSD-95 (FIG. 4A) and GluR1 (FIG. 4B) clusters and spine numbers. Neurons transfected with MKI-EGFP or EGFP were treated with Aβ oligomer or mock-treated with solvent as control. The cytoplasmic GFP signals allowed detection of dendritic spines, and PSD-95 or GluR1 clusters were detected by immunostaining. Quantification of data is shown in (FIG. 4C) (***P<0.001 in Student's t-test). […] Summary graphs from four to six culture sets plotting normalized mEPSC frequency and mEPSC amplitude are shown beneath the traces. Scale bar, 5 μm.
as §2
Commercial Aβ-42 peptide was purchased from rPeptide (Bogart, Ga., USA). […]
as §3

rat hippocampal neurons [5] = assay type: cell-based; details: FIG. 4D
all MARKs = details: Nesic et al. (2010); cited from earlier work

For `CC(=O)N[C@@H](Cc1ccc(O)cc1)C(=O)NCC(=O)N[C@@H](CCCNC(=N)N)C(=O)N[C@@H](CCCCN)C(=O)N[C@@H](CCCCN)C(=O)N[C@@H](CCCNC(=N)N)C(=O)N[C@@H](CCCNC(=N)N)C(=O)N[C@@H](CCC(N)=O)C(=O)N[C@@H](CCCNC(=N)N)C(=O)N[C@@H](CCCNC(=N)N)C(=O)N[C@@H](CCCNC(=N)N)C(=O)NCC(=O)NCC(=O)N[C@@H](Cc1ccccc1)C(=O)N1CCC[C@H]1C(=O)N[C@@H](CC(C)C)C(=O)N[C@@H](CCCCN)C(=O)N[C@@H](CCCNC(=N)N)C(=O)N[C@@H](Cc1c[nH]cn1)C(=O)N[C@@H](CC(=O)O)C(=O)NCC(=O)N[C@H](C(=O)N[C@@H](CC(=O)O)C(=O)N[C@@H](CC(=O)O)C(=O)N[C@@H](CC(C)C)C(=O)N[C@@H](CO)C(=O)N[C@@H](CCCCN)C(=O)N[C@H](C(=O)NCC(N)=O)C(C)C)C(C)C` [TAT-MKI] (Ac-YGRKKRRQRRRGGFPLKRHDGVDDLSKVG-NH2), the “MARK4-mediated tau phosphorylation in vitro” value (Human MARK4) was “inhibited”.
For `CC(=O)O[C@H]1C(=O)[C@@]2(C)[C@H]([C@H](OC(=O)c3ccccc3)[C@]3(O)C[C@H](OC(=O)[C@H](O)[C@@H](NC(=O)c4ccccc4)c4ccccc4)C(C)=C1C3(C)C)[C@]1(OC(C)=O)CO[C@@H]1C[C@@H]2O` [taxol], the Aβ-induced spine loss (Aβ-induced spine loss) is listed as “preventable”.
For “MKI-EGFP: MKI cDNA subcloned into FHUGW lentivirus vector with a C-terminal EGFP tag, expressed in rat hippocampal neurons (FPLKRHDKVDDLSK; not fully specified (C-terminus))”, the “MARK4-mediated phosphorylation of transfected human tau at the 12E8 sites” value ([1]; HA-tagged h-tau-WT in rat hippocampal neurons, immunostaining, FIG. 3B) was “effectively attenuated”, the “MARK4-mediated phosphorylation of endogenous tau at the 12E8 sites” value ([1]; expressed in rat hippocampal neurons, western blot, FIG. 3A) was “effectively attenuated” and the “phosphorylation of acetyl-CoA carboxylase (ACC) by AMP-activated kinase (AMPK)” value [2] was “did not affect”. The “MARK4 overexpression-induced reduction of GluR1 puncta density” value (rat hippocampal neurons [3]; FIG. 3E) was “effectively blocked”, the “MARK4 overexpression-induced reduction of PSD-95 puncta density” value (rat hippocampal neurons [3]; FIG. 3E) was “effectively blocked” and the “MARK4 overexpression-induced spine loss” value (rat hippocampal neurons [3]; co-expression in rat hippocampal neurons, FIGS. 3D and 3E) was “effectively blocked”. The “Aβ-caused reduction in the density of PSD-95 puncta” value (rat hippocampal neurons [4]; FIGS. 4A and 4C) was “effectively blocked”, the “Aβ-caused loss of dendritic spines” value (rat hippocampal neurons [4]; FIGS. 4A-4C) was “effectively blocked” and the “Aβ-caused reduction in the density of GluR1 puncta” value (rat hippocampal neurons [4]; FIGS. 4B and 4C) was “effectively blocked”. The “reduction of mEPSC frequency caused by Aβ” value (rat hippocampal neurons [5]; Aβ-treated neurons, held at −70 mV) was “effectively rescued”, the “mEPSC amplitude in neurons expressing inhibitor alone” value (rat hippocampal neurons [5]; no Aβ (mock-treated)) was “not amplitude” and the “mEPSC frequency in neurons expressing inhibitor alone” value (rat hippocampal neurons [5]; no Aβ (mock-treated)) was “reduced mEPSC frequency”.
For “MKI: peptide inhibitor (SEQ ID NO:1) derived from the CagA protein of Helicobacter pylori, binds substrate-binding sites of all MARKs (FPLKRHDKVDDLSK)”, the “Phosphorylation of tau at the PHF-1 site” value ([1]; rat hippocampal neurons, western blot, FIG. 3A) is given as “reduced” and the “binding to the substrate-binding sites of all MARKs” value (all MARKs) is given as “specifically bind with high affinity”.
